Laboratory results published in patent publication EP4744648A1, “LIPOPEPTIDE-CONTAINING FAT-DISSOLVING PRODUCT, AND PREPARATION METHOD THEREFOR AND USE THEREOF” (Bloomage Biotechnology Corporation Limited, priority 2023, dated 2024).

How the values were obtained:
[1] = system: Mouse adipocyte cell line 3T3-F442A; experiment: In vitro cytotoxicity test: relative growth rate of cells by CCK-8; assay type: cell-based; settings: Example 8, 24 h, 3T3-F442A; for relative growth rate: X±SD
Experimental: Mouse adipocyte cell line 3T3-F442A in the logarithmic growth phase was seeded into a 96-well plate at a density of 1×10^5 cells/mL, with 100 µL per well. The culture medium consisted of a basal culture medium supplemented with 10% fetal bovine serum. The seeded cells were incubated conventionally in a carbon dioxide incubator at 37°C and 5% CO2 for 24 h.
The solution was freshly prepared before use.
After routine incubation for 24 h, the old culture medium was discarded, and then 100 µL of sample solution was added to replace it in the experimental group. An equal volume of serum-free culture medium was added to the normal control group. Each concentration was set up with at least three replicate wells.
After another incubation for 24 h, the relative growth rate of cells was detected by CCK-8. The culture medium was discarded, 100 µL of CCK-8 diluted 10-fold with the serum-free medium was added to each well. The plate was incubated in a cell incubator for another 2 h. The absorbance was determined using a microplate reader at a wavelength of 450 nm. The relative growth rate (RGR) is a ratio of the absorbance of the experimental group to the absorbance of the normal control group.
3T3-F442A mouse adipocytes in the logarithmic growth phase were seeded into a 96-well plate at a density of 1 × 10^5 cells/mL, with 100 µL per well. After incubation for 24 h, the culture medium was replaced with 100 µL of culture medium containing different concentrations of samples. An equal volume of serum-free culture medium was added to the blank control group, and the incubation was continued for another 24 h. The relative growth rate of cells was determined by CCK-8. The blank control was set as 100%, the relative growth rate and half inhibitory concentration of each group were calculated.

Female Kunming mice = experiment: Animal experiment comparing surfactin-C14 and surfactin-C15: subcutaneous injection in right inguinal region, four administrations; settings: for Mean adipocyte area (x±SEM, mm^2) / Mean adipocyte density (x±SEM, n/mm^2): H-E sections
Experimental: Female Kunming mice (aged 7-8 weeks, weighing 25.55-33.76 g) were taken, ranked in ascending order of body weight, and divided into groups of 7-8 mice using a Latin method. The tails of mice in each cage were marked and distinguished with an oil-based permanent marker.
Based on the injection dose of the positive drug reported in the literature, the subcutaneous injection dose for this test was determined to be 10 mg/mL at a volume of 200 µL. Subcutaneous injection was performed using a four-needle mesotherapy tip (34 G, 1.5 mm long, inner diameter 0.6 mm). Administration was performed sequentially from top to bottom along the right inguinal region. Administration was performed once every 14 days for a total of four administrations.
During the administration period, food intake, water consumption and general activity of all experimental animals in each group were observed daily under identical feeding conditions and housing environments. Daily observation was performed on each mouse to check for ulceration, induration and other lesions at the administration site. 14 days after the second administration, two mice from each group were sacrificed and dissected. All the remaining mice were sacrificed and dissected 14 days after the fourth administration.
In this example, changes in adipose tissue at the administration sites of experimental mice were statistically analyzed. Specifically, the adipose tissue was excised from the inguinal region on the inoculated side (right side), weighed and recorded. The adipose tissue-to-body weight percentage of the inoculated side for each mouse was then calculated using the formula: [(weight of adipose tissue on the inoculated side/body weight of the mouse) × 100%].
Further statistical analysis was performed on adipocyte density and adipocyte area. The adipose tissue from the inoculated side was immersed in adipose tissue fixative and sent for hematoxylin-eosin (H-E) staining. After imaging was completed, all measurements were standardized in millimeters. The area of adipose tissue in each image was measured, and the number of adipocytes in each image was counted. The area of a single adipocyte was calculated as: adipocyte area = total adipose tissue area/adipocyte number; adipocyte density = adipocyte number/total adipose tissue area.

[2] = 1 mg/mL (low-dose), four administrations
[3] = 5 mg/mL (medium-dose), four administrations
[4] = 10 mg/mL, four administrations once every 14 days, right inguinal

Substance | relative growth rate ([1]; 0.005 mg/mL) | relative growth rate ([1]; 0.01 mg/mL) | relative growth rate ([1]; 0.02 mg/mL) | relative growth rate ([1]; 0.04 mg/mL) | relative growth rate ([1]; 0.08 mg/mL) | IC50 against adipocytes relative to HXRZ-A [1] | Mean adipocyte area (x±SEM, mm^2) (Female Kunming mice; 1 mg/mL (low-dose)) [mm^2] | Mean adipocyte density (x±SEM, n/mm^2) (Female Kunming mice; 1 mg/mL (low-dose)) [n/mm^2] | Mean wet adipose tissue weight (x±SEM, unit: g) (Female Kunming mice; [2]) [g] | Mean wet adipose tissue weight/body weight percentage (x±SEM, %) (Female Kunming mice; [2]) [%] | Mean adipocyte area (x±SEM, mm^2) (Female Kunming mice; 5 mg/mL (medium-dose)) [mm^2] | Mean adipocyte density (x±SEM, n/mm^2) (Female Kunming mice; 5 mg/mL (medium-dose)) [n/mm^2] | Mean wet adipose tissue weight (x±SEM, unit: g) (Female Kunming mice; [3]) [g] | Mean wet adipose tissue weight/body weight percentage (x±SEM, %) (Female Kunming mice; [3]) [%] | Mean wet adipose tissue weight/body weight percentage (x±SEM, %) (Female Kunming mice; 10 mg/mL, four administrations) [%] | Mean wet adipose tissue weight (x±SEM, unit: g) (Female Kunming mice; [4]) [g] | Mean adipocyte area (x±SEM, mm^2) (Female Kunming mice; 10 mg/mL, four administrations) [mm^2] | Mean adipocyte density (x±SEM, n/mm^2) (Female Kunming mice; 10 mg/mL, four administrations) [n/mm^2]
surfactin-C15 [HXRZ-C] | 76.06±3.24 #, a, b % | 43.53±3.35 #, a % | 17.61±1.76 #, a % | 10.29±0.38 b % | 10.31±0.48 *,#,a,b % | approximately half that of HXRZ-A | 0.003222±0.000161 | 355.3684±57.4571 | 0.198 ± 0.030 | 0.51±0.08 | 0.003297±0.000274 | 328.9026±63.1322 | 0.209 ± 0.021 | 0.53±0.05 | 0.48±0.02 | 0.188 ± 0.011 | 0.004632±0.000253 | 251.3400±31.0087
surfactin-C14 [HXRZ-B] | 89.75±7.04 #, c % | 46.22±4.26 #, a % | 14.74±0.48 #, a % | 9.02±0.37 #, c % | 8.11±0.24 #, a, c % | – | 0.00284±0.000267 | 418.7156±85.9688 | 0.326 ± 0.106 | 0.76±0.21 | 0.003554±0.00047 | 313.2046±85.5687 | 0.225 ± 0.039 | 0.56±0.08 | 0.58±0.07 | 0.232 ± 0.032 | 0.003177±0.000284 | 340.3195±31.7463
surfactin-C13 [HXRZ-A] | 97.66±3.27 c % | 97.00±3.13 b, c % | 34.74±3.25 #, b, c % | 9.83±0.36 % | 9.27±0.24 b, c % | – | – | – | – | – | – | – | – | – | – | – | – | –
